Data from ChEMBL document CHEMBL2406908, “Re-engineering of the duocarmycin structural architecture enables bioprecursor development targeting CYP1A1 and CYP2W1 for biological activity” (J Med Chem, 2013).
pIC50: −log10 of the molar value. Activity calls are given as the source filed them. The rule behind the calls is not given here.

How the values were obtained:
RT-112 [1] = assay: Antiproliferative activity against human RT112 cells expressing CYP1A1 assessed as growth inhibition after 96 hrs by MTT assay; format: functional, cell-based; conditions: RT-112, 96 h
CYP1A1 [2] = assay: Potentiation factor, ratio of IC50 for wild type CHO cells to IC50 of CHO cells expressing CYP1A1; format: ADME, cell-based, Cricetulus griseus; conditions: chinese hamster, wild type CHO cells and CHO cells expressing CYP1A1; read-out: Ratio IC50
CYP1A1 [3] = assay: Potentiation factor, ratio of IC50 for wild type HEK293 cells to IC50 of HEK293 cells expressing CYP1A1; format: ADME, cell-based; conditions: human, wild type HEK293 cells and HEK293 cells expressing CYP1A1; read-out: Ratio IC50
CHO [4] = assay: Antiproliferative activity against CHO cells expressing CYP1A1 assessed as growth inhibition after 96 hrs by MTT assay; format: functional, cell-based; conditions: Cricetulus griseus
HEK293 [5] = assay: Antiproliferative activity against human HEK293 cells expressing CYP2W1 assessed as growth inhibition after 96 hrs by MTT assay; format: functional, cell-based; conditions: HEK293, 96 h
CHO [6] = assay: Antiproliferative activity against CHO cells assessed as growth inhibition after 96 hrs by MTT assay; format: cell-based; conditions: Cricetulus griseus
RT-112 [7] = assay: Induction of DNA damage in human RT112 cells assessed as phosphorylation of gammaH2A.X at 0.5 to 5 uM after 48 hrs by Western blotting analysis; format: functional, cell-based
HEK293 [8] = assay: Induction of cell death in human HEK293 cells expressing CYP2W1 t 0.5 to 5 uM after 48 hrs by trypan blue assay; format: functional, cell-based
HEK293 [9] = assay: Induction of DNA damage in human HEK293 cells expressing CYP2W1 assessed as phosphorylation of gammaH2A.X at 0.5 to 5 uM after 48 hrs by Western blotting analysis; format: functional, cell-based
HEK293 [10] = assay: Induction of cell death in mock-transfected human HEK293 cells t 0.5 to 5 uM after 48 hrs by trypan blue assay; format: cell-based; conditions: hek293, 48 h
RT-112 [11] = assay: Induction of cell death in human RT112 cells after 48 hrs at 0.5 to 5 uM by trypan blue assay; format: functional, cell-based
HEK293 [12] = assay: Induction of DNA damage in mock-transfected human HEK293 assessed as phosphorylation of gammaH2A.X at 0.5 to 5 uM after 48 hrs by Western blotting analysis; format: cell-based; conditions: hek293, 48 h
HEK293 [13] = assay: Antiproliferative activity against human HEK293 cells assessed as growth inhibition after 96 hrs by MTT assay; format: cell-based; conditions: HEK293, 96 h

O=C(c1cc2cc(Cl)ccc2[nH]1)N1CC(CCl)c2c1ccc1[nH]ccc21 (stereo not drawn)
pIC50 (RT-112 [1]): 6.15
selectivity ratio (CYP1A1 [2]): > 23200
selectivity ratio (CYP1A1 [3]): 41.7
pIC50 (CHO [4]): > 9.00
pIC50 (HEK293 [5]): 6.52
pIC50 (CHO [6]): 4.63

COc1ccc2[nH]c(C(=O)N3CC(CCl)c4c3cc(O)c3ccccc43)cc2c1 (stereo not drawn)
pIC50 (RT-112 [1]): 3.82
selectivity ratio (CYP1A1 [2]): 1.9
selectivity ratio (CYP1A1 [3]): 0.2
pIC50 (CHO [4]): 3.99
pIC50 (HEK293 [5]): 3.19
pIC50 (CHO [6]): 3.71

O=C(c1cc2cc(F)cc(F)c2[nH]1)N1CC(CCl)c2c1ccc1[nH]ccc21 (stereo not drawn)
pIC50 (RT-112 [1]): 4.91
selectivity ratio (CYP1A1 [2]): < 21
selectivity ratio (CYP1A1 [3]): 1.1
pIC50 (CHO [4]): < 6.00
pIC50 (HEK293 [5]): 5.04
pIC50 (CHO [6]): 4.68

COc1cc2cc(C(=O)N3CC(CCl)c4c3ccc3[nH]ccc43)[nH]c2cc1OC (stereo not drawn)
Activity (RT-112 [7]): Active
pIC50 (RT-112 [1]): 6.52
Activity (HEK293 [8]): Active
selectivity ratio (CYP1A1 [2]): > 3000
Activity (HEK293 [9]): Active
selectivity ratio (CYP1A1 [3]): 1.3
pIC50 (CHO [4]): > 9.00
Activity (HEK293 [10]): Non-toxic
pIC50 (HEK293 [5]): 5.21
Activity (RT-112 [11]): Active
pIC50 (CHO [6]): 5.52
Activity (HEK293 [12]): Non-toxic

COc1ccc2[nH]c(C(=O)N3CC(CCl)c4c3cc(O)c3[nH]ccc43)cc2c1 (stereo not drawn)
pIC50 (RT-112 [1]): 9.90
selectivity ratio (CYP1A1 [2]): 0.2
selectivity ratio (CYP1A1 [3]): 1.2
pIC50 (CHO [4]): 9.20
pIC50 (HEK293 [5]): 9.42
pIC50 (HEK293 [13]): 9.34
pIC50 (CHO [6]): 9.78

CS(=O)(=O)c1cc(F)cc2cc(C(=O)N3CC(CCl)c4c3ccc3[nH]ccc43)[nH]c12 (stereo not drawn)
pIC50 (RT-112 [1]): 5.11
selectivity ratio (CYP1A1 [2]): 0.8
selectivity ratio (CYP1A1 [3]): 0.9
pIC50 (CHO [4]): 5.39
pIC50 (HEK293 [5]): 4.91
pIC50 (CHO [6]): 5.49
